# Source: patent publication US20150031068A1, “METHODS AND COMPOSITIONS FOR DETECTING IMMUNE SYSTEM ACTIVATION” (Lycera Corporation, priority 2012, published 2015)
# Columns and labels:
# [1] = Plasma metabolite profile after ^13C-glutamine tracer load in mouse model of acute graft-versus-host disease; assay type: in vivo; conditions: for circulating total glutamine concentration in plasma, change: grafted host (allo-transplanted) mice compared to control donor and control host mice
# Protocol: To investigate metabolic adaptations that occur in response to allo-activation, host strain animals (female B6D2F1 mice, H-2b/d) were injected with 50-75 million spleen cells from donor strain animals (female B6.SJL mice, H-2b). […] Eight days after injection, transplanted mice along with control non-transplanted animals from the host and donor strains received with U-^13C(6)-glutamine (Sigma#60516, 1.0 g/kg I.P.) or U-^13C(5)-glucose (Sigma#660663, 1.0 g/kg I.P.) or potassium U-^13C(16)-palmitate (Sigma#687871, 1.0 g/kg, gastric gavage). Treatment groups of four mice each were euthanized 60 minutes after the glutamine or glucose tracer loads or 180 minutes after palmitate tracer load by over exposure to carbon dioxide. Terminal blood samples were collected by cardiac puncture, plasma prepared after blood was mixed with heparin and frozen at −80° C. Spleens were removed and processed to isolate T cells as separate fractions derived from either the donor or host strains of mice. Samples were stored on dry ice overnight and then stored at −80° C. until analyzed using GC/MS-based mass isotopomer analysis.
# T cells [2] = experiment: Molar percent enrichment of [4,5-^13C2]-L-glutamate in spleen T cells after ^13C-palmitate tracer load; assay type: in vivo, mouse
# Excerpt: The molar percent enrichment of [4,5-^13C2]-L-glutamate is the amount of [4,5-^13C2]-L-glutamate in a sample divided by the total amount of all ^13C-labeled glutamate isotopomers in the sample.
# T cells [3] = experiment: ^13C delta in CO2 in spleen T cells after ^13C-palmitate tracer load, acute graft-versus-host disease model; assay type: in vivo, mouse
# Protocol: To investigate metabolic adaptations that occur in response to allo-activation, host strain animals (female B6D2F1 mice, H-2b/d) were injected with 50-75 million spleen cells from donor strain animals (female B6.SJL mice, H-2b). The miss-match between the strains major histocompatibility antigens (e.g., H-2b/d versus H-2b) causes T cell activation of donor T cells in vivo and results in a mouse model of acute graft versus host disease. Eight days after injection, transplanted mice along with control non-transplanted animals from the host and donor strains received with U-^13C(6)-glutamine (Sigma#60516, 1.0 g/kg I.P.) or U-^13C(5)-glucose (Sigma#660663, 1.0 g/kg I.P.) or potassium U-^13C(16)-palmitate (Sigma#687871, 1.0 g/kg, gastric gavage). Treatment groups of four mice each were euthanized 60 minutes after the glutamine or glucose tracer loads or 180 minutes after palmitate tracer load by over exposure to carbon dioxide. Terminal blood samples were collected by cardiac puncture, plasma prepared after blood was mixed with heparin and frozen at −80° C. Spleens were removed and processed to isolate T cells as separate fractions derived from either the donor or host strains of mice. Samples were stored on dry ice overnight and then stored at −80° C. until analyzed using GC/MS-based mass isotopomer analysis.
SMILES,"circulating total glutamine concentration in plasma, change [1]","circulating total glutamine concentration in plasma, change ([1]; listed as glutamine)","share of ^13C-labeled glutamine fraction still uniformly ^13C-labeled ([1]; grafted host animals, plasma, one hour after glutamine tracer load)","molar percent enrichment of [4,5-^13C2]-L-glutamate (T cells [2]; allo-activated donor T cells versus control naive T cells, FIG. 6)","molar percent enrichment of [4,5-^13C2]-L-glutamate (T cells [2]; host T cells from allo-transplanted mouse versus T cells from healthy host control, FIG. 7)","^13C delta in CO2 (T cells [3]; allo-activated donor type T cells versus control naive donor type T cells, FIG. 4B)","^13C delta in CO2 (T cells [3]; host T cells from allo-transplanted mouse versus host-type T cells from healthy host control, FIG. 5B)"
NC(=O)CCC(N)C(=O)O [[U-^13C5]-L-glutamine],more than two-fold drop,reduction,83.4%,,,,
"[13CH3][13CH2][13CH2][13CH2][13CH2][13CH2][13CH2][13CH2][13CH2][13CH2][13CH2][13CH2][13CH2][13CH2][13CH2][13C](=O)[O-].[K+] [uniformly labeled ^13C-palmitate, potassium U-^13C(16)-palmitate]",,,,over six times greater,no statistically significant difference,higher,no statistically significant difference
